Reference: patent EP3421457B1, “PYRIMIDINE FGFR4 INHIBITORS” (priority 2013, dated 2015)
Structures can show the parent of a compound that is named as a salt.

Biological target: T1, FGFR4 (Homo sapiens, UniProt P22455)
T1 construct: purchased Invitrogen
Assay: IC50 Profiling of Kinase Activity Inhibition (Kinase HotSpot assay)
Format: biochemical
Settings: not given

T1 sequence (P22455 22-802): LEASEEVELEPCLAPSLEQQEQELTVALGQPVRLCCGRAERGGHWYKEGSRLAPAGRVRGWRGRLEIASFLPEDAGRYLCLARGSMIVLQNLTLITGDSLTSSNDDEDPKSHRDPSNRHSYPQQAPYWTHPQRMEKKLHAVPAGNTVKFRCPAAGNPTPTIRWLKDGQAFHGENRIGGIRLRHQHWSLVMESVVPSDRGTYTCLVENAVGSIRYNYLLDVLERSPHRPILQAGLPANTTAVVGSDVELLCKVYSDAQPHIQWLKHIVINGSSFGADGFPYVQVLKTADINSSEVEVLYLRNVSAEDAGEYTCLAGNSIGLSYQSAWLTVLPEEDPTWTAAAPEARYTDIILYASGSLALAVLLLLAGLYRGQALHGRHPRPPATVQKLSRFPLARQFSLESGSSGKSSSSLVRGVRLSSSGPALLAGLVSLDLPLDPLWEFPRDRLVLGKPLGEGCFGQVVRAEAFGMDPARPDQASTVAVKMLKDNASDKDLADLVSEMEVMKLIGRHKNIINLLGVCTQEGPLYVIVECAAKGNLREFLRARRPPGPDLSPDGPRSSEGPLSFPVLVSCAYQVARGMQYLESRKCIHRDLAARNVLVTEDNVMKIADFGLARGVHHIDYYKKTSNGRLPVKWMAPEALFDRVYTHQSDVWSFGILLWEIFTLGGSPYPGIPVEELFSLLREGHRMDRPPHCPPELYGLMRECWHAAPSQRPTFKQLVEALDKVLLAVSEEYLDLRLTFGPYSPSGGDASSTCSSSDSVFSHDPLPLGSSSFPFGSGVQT

SMILES	IC50 [nM]
C=CC(=O)Nc1cc(N2CCN(C(C)=O)CC2)ccc1Nc1cc(N(C)C(=O)Nc2c(Cl)c(OC)cc(OC)c2Cl)ncn1 [Compound 154, N-(5-(4-acetylpiperazin-1-yl)-2-((6-(3-(2,6-dichloro-3,5-dimethoxyphenyl)-1-methylureido)pyrimidin-4-yl)amino)phenyl)acrylamide]	< 1

Same assay, conditions: Table 1

SMILES	IC50 [nM]
C=CC(=O)Nc1ccccc1Nc1cc(N(Cc2ccccc2)C(=O)Nc2c(Cl)c(OC)cc(OC)c2Cl)ncn1 [Compound 130, N-(2-{6-[1-Benzyl-3-(2,6-dichloro-3,5-dimethoxy-phenyl)-ureido]-pyrimidin-4-ylamino}-phenyl)-acrylamide]	2
C=CC(=O)Nc1cc(N2CCN(CCO)CC2)ccc1Nc1cc(N(C)C(=O)Nc2c(Cl)c(OC)cc(OC)c2Cl)ncn1 [Compound 168, N-(2-((6-(3-(2,6-dichloro-3,5-dimethoxyphenyl)-1-methylureido)pyrimidin-4-yl)amino)-5-(4-(2-hydroxyethyl)piperazin-1-yl)phenyl)acrylamide TFA salt]	< 1
C=CC(=O)Nc1ccccc1Nc1cc(N(CCNC(C)C)C(=O)Nc2c(Cl)c(OC)cc(OC)c2Cl)ncn1 [Compound 183]	180
C=CC(=O)Nc1cccc(OC)c1Nc1cc(N(C)C(=O)Nc2c(Cl)c(OC)cc(OC)c2Cl)ncn1 [Compound 166, N-(2-((6-(3-(2,6-dichloro-3,5-dimethoxyphenyl)-1-methylureido)pyrimidin-4-yl)amino)-3-methoxyphenyl)acrylamide]	< 1
C=CC(=O)Nc1ccccc1Nc1cc(N(Cc2ccccn2)C(=O)Nc2c(Cl)c(OC)cc(OC)c2Cl)ncn1 [Compound 131, N-(2-{6-[3-(2,6-Dichloro-3,5-dimethoxy-phenyl)-1-pyridin-2-ylmethyl-ureido]-pyrimidin-4-ylamino}-phenyl)-acrylamide]	< 1
C=CC(=O)Nc1cccc(Cl)c1Nc1cc(N(C)C(=O)Nc2c(Cl)c(OC)cc(OC)c2Cl)ncn1 [Compound 167, N-(3-chloro-2-((6-(3-(2,6-dichloro-3,5-dimethoxyphenyl)-1-methylureido)pyrimidin-4-yl)amino)phenyl)acrylamide]	< 1
COc1cc(OC)c(Cl)c(NC(=O)N(C)c2cc(Nc3ccccc3NC(=O)/C=C\Cl)ncn2)c1Cl [Compound 171, (Z)-3-chloro-N-(2-((6-(3-(2,6-dichloro-3,5-dimethoxyphenyl)-1-methylureido)pyrimidin-4-yl)amino)phenyl)acrylamide]	3
C=CC(=O)Nc1cc(OCCO)ccc1Nc1cc(N(C)C(=O)Nc2c(Cl)c(OC)cc(OC)c2Cl)ncn1 [Compound 164, 2,2,2-trifluoroacetate]	< 1
COc1cc(OC)c(Cl)c(NC(=O)N(C)c2cc(Nc3ccccc3NC(=O)/C=C/Cl)ncn2)c1Cl [Compound 170, (E)-3-chloro-N-(2-((6-(3-(2,6-dichloro-3,5-dimethoxyphenyl)-1-methylureido)pyrimidin-4-yl)amino)phenyl)acrylamide]	8
C=CC(=O)Nc1cc(C2CCN(C)CC2)ccc1Nc1cc(N(C)C(=O)Nc2c(Cl)c(OC)cc(OC)c2Cl)ncn1 [Compound 112, N-(2-(6-(3-(2,6-dichloro-3,5-dimethoxyphenyl)-1-methylureido)pyrimidin-4-ylamino)-5-(1-methylpiperidin-4-yl)phenyl)acrylamide]	< 1
C=CC(=O)Nc1ccccc1Nc1cc(N(Cc2ccncc2)C(=O)Nc2c(Cl)c(OC)cc(OC)c2Cl)ncn1 [Compound 132]	< 1
C=CC(=O)Nc1ccccc1Nc1cc(N(CCOC)C(=O)Nc2c(Cl)c(OC)cc(OC)c2Cl)ncn1 [Compound 116, N-(2-{6-[3-(2,6-Dichloro-3,5-dimethoxy-phenyl)-1-(2-methoxy-ethyl)-ureido]-pyrimidin-4-ylamino}-phenyl)-acrylamide]	4
C=CC(=O)Nc1cc(N2CCN(CCN)CC2)ccc1Nc1cc(N(C)C(=O)Nc2c(Cl)c(OC)cc(OC)c2Cl)ncn1 [Compound 161, N-(5-(4-(2-aminoethyl)piperazin-1-yl)-2-((6-(3-(2,6-dichloro-3,5-dimethoxyphenyl)-1-methylureido)pyrimidin-4-yl)amino)phenyl)acrylamide 2 TFA salt]	< 1
C=CC(=O)Nc1c(Nc2cc(N(C)C(=O)Nc3c(Cl)c(OC)cc(OC)c3Cl)ncn2)cccc1OC [Compound 186]	345
C#CC(=O)Nc1ccccc1Nc1cc(N(C)C(=O)Nc2c(Cl)c(OC)cc(OC)c2Cl)ncn1 [Compound 114, N-(2-(6-(3-(2,6-dichloro-3,5-dimethoxyphenyl)-1-methylureido)pyrimidin-4-ylamino)phenyl)propiolamide]	< 1

Continued, values first:

IC50 [nM]	SMILES
< 1	C=CC(=O)Nc1ccccc1Nc1cc(N(CCCN2CCN(C)CC2)C(=O)Nc2c(Cl)c(OC)cc(OC)c2Cl)ncn1 [Compound 121, N-[2-(6-{3-(2,6-Dichloro-3,5-dimethoxy-phenyl)-1-[3-(4-methyl-piperazin-1-yl)-propyl]-ureido}-pyrimidin-4-ylamino)-phenyl]-acrylamide]
< 1	C=CC(=O)Nc1cc(N2CCN(C)CC2)ccc1Nc1cc(N(C)C(=O)Nc2c(Cl)c(OC)cc(OC)c2Cl)ncn1 [Compound 159]
< 1	C=CC(=O)Nc1cc(N(C)CCO)ccc1Nc1cc(N(C)C(=O)Nc2c(Cl)c(OC)cc(OC)c2Cl)ncn1 [Compound 158, N-(2-((6-(3-(2,6-dichloro-3,5-dimethoxyphenyl)-1-methylureido)pyrimidin-4-yl)amino)-5-((2-hydroxyethyl)(methyl)amino)phenyl)acrylamide]
< 1	C=CC(=O)Nc1cc(C(C)O)ccc1Nc1cc(N(C)C(=O)Nc2c(Cl)c(OC)cc(OC)c2Cl)ncn1 (stereo not shown) [Compound 156, N-(2-((6-(3-(2,6-dichloro-3,5-dimethoxyphenyl)-1-methylureido)pyrimidin-4-yl)amino)-5-(1-hydroxyethyl)phenyl) acrylamide]
14	C=CC(=O)N(C)c1cc(N2CCN(CC)CC2)ccc1Nc1cc(N(C)C(=O)Nc2c(Cl)c(OC)cc(OC)c2Cl)ncn1 [Compound 152]
< 1	C=CC(=O)Nc1cccc(C)c1Nc1cc(N(C)C(=O)Nc2c(Cl)c(OC)cc(OC)c2Cl)ncn1 [Compound 165, N-(2-((6-(3-(2,6-dichloro-3,5-dimethoxyphenyl)-1-methylureido)pyrimidin-4-yl)amino)-3-methylphenyl)acrylamide]
10	C=CC(=O)Nc1cc(N2CCN(CC)CC2)ccc1Nc1cc(N(C)C(=O)Nc2c(F)c(OC)cc(OC)c2F)ncn1 [Compound 143]
< 1	C=CC(=O)Nc1cc(COC)ccc1Nc1cc(N(C)C(=O)Nc2c(Cl)c(OC)cc(OC)c2Cl)ncn1 [Compound 147, N-(2-((6-(3-(2,6-dichloro-3,5-dimethoxyphenyl)-l-methylureido)pyrimidin-4-yl)amino)-5-(methoxymethyl)phenyl)acrylamide]
< 1	C=CC(=O)Nc1cc(C(=O)N2CCN(CC)CC2)ccc1Nc1cc(N(C)C(=O)Nc2c(Cl)c(OC)cc(OC)c2Cl)ncn1 [Compound 150, N-(2-((6-(3-(2,6-dichloro-3,5-dimethoxyphenyl)-1-methylureido)pyrimidin-4-yl)amino)-5-(4-ethylpiperazine-1-carbonyl)phenyl)acrylamide]
< 1	C=CC(=O)Nc1cc(N2CCN(CC)CC2)ccc1Nc1cc(N(C)C(=O)Nc2c(F)c(OC)cc(OC)c2Cl)ncn1 [Compound 144, N-(2-((6-(3-(2-chloro-6-fluoro-3,5-dimethoxyphenyl)-1-methylureido)pyrimidin-4-yl)amino)-5-(4-ethylpiperazin-1-yl)phenyl)acrylamide]
< 1	CCN1CCN(c2ccc(Nc3cc(N(C)C(=O)Nc4c(Cl)c(OC)cc(OC)c4Cl)ncn3)c(NC(=O)/C=C\Cl)c2)CC1 [Compound 181, (Z)-3-chloro-N-(2-((6-(3-(2,6-dichloro-3,5-dimethoxyphenyl)-1-methylureido)pyrimidin-4-yl)amino)-5-(4-ethylpiperazin-1-yl)phenyl)acrylamide]
< 1	C=CC(=O)Nc1cc(N2CCN(CC)CC2)ccc1Nc1cc(N(C)C(=O)Nc2c(Cl)cccc2Cl)ncn1 [Compound 140, N-(2-((6-(3-(2,6-dichlorophenyl)-1-methylureido)pyrimidin-4-yl)amino)-5-(4-ethylpiperazin-1-yl)phenyl)acrylamide]
< 1	C=CC(=O)Nc1cc(C(=O)N(C)C)ccc1Nc1cc(N(C)C(=O)Nc2c(Cl)c(OC)cc(OC)c2Cl)ncn1 [Compound 149, 3-acrylamido-4-((6-(3-(2,6-dichloro-3,5-dimethoxyphenyl)-1-methylureido)pyrimidin-4-yl)amino)-N,N-dimethylbenzamide]
13	C=CC(=O)Nc1c(F)cccc1Nc1cc(N(C)C(=O)Nc2c(Cl)c(OC)cc(OC)c2Cl)ncn1 [Compound 185, N-(2-((6-(3-(2,6-dichloro-3,5-dimethoxyphenyl)-1-methylureido)pyrimidin-4-yl)amino)-6-fluorophenyl)acrylamide]
< 1	C=CC(=O)Nc1cc(N2C[C@@H](C)N[C@@H](C)C2)ccc1Nc1cc(N(C)C(=O)Nc2c(Cl)c(OC)cc(OC)c2Cl)ncn1 [Compound 124, N-[2-{6-[3-(2,6-Dichloro-3,5-dimethoxy-phenyl)-1-methyl-ureido]-pyrimidin-4-ylamino}-5-(3,5-dimethyl-piperazin-1-yl)-phenyl]-acrylamide]
< 1	C=CC(=O)Nc1cc(C(C)OC)ccc1Nc1cc(N(C)C(=O)Nc2c(Cl)c(OC)cc(OC)c2Cl)ncn1 (stereo not shown) [Compound 155, N-(2-((6-(3-(2,6-dichloro-3,5-dimethoxyphenyl)-1-methylureido)pyrimidin-4-yl)amino)-5-(1-methoxyethyl)phenyl)acrylamide]
2	C=CC(=O)Nc1cc(N2CCN(CC)CC2)ccc1Nc1cc(N(C)C(=O)Nc2cc(OC)cc(OC)c2Cl)ncn1 [Compound 141, N-(2-((6-(3-(2-chloro-3,5-dimethoxyphenyl)-1-methylureido)pyrimidin-4-yl)amino)-5-(4-ethylpiperazin-1-yl)phenyl)acrylamide]
< 1	C=CC(=O)Nc1cc(N2CCN(S(C)(=O)=O)CC2)ccc1Nc1cc(N(C)C(=O)Nc2c(Cl)c(OC)cc(OC)c2Cl)ncn1 [Compound 125, N-[2-{6-[3-(2,6-Dichloro-3,5-dimethoxy-phenyl)-1-methyl-ureido]-pyrimidin-4-ylamino}-5-(4-methanesulfonyl-piperazin-1-yl)-phenyl]-acrylamide]
